# Source: paper PMC10997755, “Discovery of a small-molecule inhibitor that traps Polθ on DNA and synergizes with PARP inhibitors” (Nature Communications, 2024)
# Several values for one entry are separate records, joined by “and”; a condition that tells them apart may be missing. Equal values may be shown once.
# T1: Polθ-pol (Homo sapiens, UniProt O75417)
# T1 construct: purified recombinant human Polθ-pol (comprising amino acid residues 1792–2590); made in house
# T1 sequence (O75417 1792-2590): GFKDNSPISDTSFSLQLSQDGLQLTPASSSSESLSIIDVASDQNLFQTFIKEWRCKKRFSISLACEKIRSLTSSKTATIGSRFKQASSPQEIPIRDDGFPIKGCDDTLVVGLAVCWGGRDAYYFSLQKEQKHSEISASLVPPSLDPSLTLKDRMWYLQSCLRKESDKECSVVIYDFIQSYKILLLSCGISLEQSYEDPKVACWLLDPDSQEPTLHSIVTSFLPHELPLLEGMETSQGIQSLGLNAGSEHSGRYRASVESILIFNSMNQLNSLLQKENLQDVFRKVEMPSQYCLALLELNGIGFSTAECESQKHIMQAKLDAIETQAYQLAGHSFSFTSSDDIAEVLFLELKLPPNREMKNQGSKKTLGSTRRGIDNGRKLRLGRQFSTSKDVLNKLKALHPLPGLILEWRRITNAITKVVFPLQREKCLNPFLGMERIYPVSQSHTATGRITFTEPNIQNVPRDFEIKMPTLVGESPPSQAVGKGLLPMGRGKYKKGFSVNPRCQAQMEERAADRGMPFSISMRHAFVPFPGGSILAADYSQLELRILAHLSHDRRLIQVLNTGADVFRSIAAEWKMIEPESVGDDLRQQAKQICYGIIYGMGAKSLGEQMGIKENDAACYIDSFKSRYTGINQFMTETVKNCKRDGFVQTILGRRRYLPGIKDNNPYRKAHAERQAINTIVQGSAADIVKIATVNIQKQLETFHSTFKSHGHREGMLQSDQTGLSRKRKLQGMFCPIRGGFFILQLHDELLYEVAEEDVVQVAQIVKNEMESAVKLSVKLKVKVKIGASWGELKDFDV
# T2: Polθ-pol (human, UniProt O75417 1792-2590)
# T2 sequence: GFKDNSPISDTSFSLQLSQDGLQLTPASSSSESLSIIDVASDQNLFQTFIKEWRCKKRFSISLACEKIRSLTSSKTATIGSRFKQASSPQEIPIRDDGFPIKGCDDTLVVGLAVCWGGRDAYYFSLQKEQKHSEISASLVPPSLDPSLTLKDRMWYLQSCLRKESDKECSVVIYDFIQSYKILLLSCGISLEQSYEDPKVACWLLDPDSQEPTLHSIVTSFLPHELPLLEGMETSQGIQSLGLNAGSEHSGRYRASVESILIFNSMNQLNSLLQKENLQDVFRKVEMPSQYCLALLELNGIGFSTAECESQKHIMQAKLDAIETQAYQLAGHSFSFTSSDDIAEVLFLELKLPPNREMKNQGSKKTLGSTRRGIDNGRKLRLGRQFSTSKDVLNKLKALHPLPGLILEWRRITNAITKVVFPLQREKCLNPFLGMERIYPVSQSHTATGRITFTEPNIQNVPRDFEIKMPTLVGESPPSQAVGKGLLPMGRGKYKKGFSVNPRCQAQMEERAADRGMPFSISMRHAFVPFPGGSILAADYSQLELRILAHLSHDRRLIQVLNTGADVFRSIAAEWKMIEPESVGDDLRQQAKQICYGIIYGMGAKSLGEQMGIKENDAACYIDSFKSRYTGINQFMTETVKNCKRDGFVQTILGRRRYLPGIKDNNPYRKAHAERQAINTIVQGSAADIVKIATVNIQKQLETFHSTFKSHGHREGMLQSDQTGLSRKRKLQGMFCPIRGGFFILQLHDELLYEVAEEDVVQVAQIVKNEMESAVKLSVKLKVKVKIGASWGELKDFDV
# T3: PolθΔL (Polθ-pol, five loops replaced) (UniProt O75417 …, internal_change)
# T3 sequence: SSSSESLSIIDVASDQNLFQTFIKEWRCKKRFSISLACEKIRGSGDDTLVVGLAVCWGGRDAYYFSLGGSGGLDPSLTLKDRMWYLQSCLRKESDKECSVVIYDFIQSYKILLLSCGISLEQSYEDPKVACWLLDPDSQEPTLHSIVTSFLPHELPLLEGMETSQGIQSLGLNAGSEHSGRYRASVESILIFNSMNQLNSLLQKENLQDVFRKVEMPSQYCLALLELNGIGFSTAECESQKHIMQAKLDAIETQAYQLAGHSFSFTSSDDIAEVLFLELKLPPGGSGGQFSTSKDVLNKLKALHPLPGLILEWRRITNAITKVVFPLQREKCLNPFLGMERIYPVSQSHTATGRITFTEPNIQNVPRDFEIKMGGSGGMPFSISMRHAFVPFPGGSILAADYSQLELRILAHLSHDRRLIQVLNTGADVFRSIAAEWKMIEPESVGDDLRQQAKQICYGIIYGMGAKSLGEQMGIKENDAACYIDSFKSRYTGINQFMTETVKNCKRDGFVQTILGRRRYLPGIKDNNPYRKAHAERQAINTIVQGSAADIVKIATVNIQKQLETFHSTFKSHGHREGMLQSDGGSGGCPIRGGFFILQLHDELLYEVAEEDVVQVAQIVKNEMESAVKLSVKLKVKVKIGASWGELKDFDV
# B1: LM3-EcoRI/LM4-EcoRI primer-template (dsDNA)
# DNA 1: CGGCGAATTCGCAG
# DNA 2: AGTAAGAGAACGCTGCGAATTCGCCG
# B2: crystallization primer-template (dsDNA)
# DNA 1: CGACGTCGCAGCGC
# DNA 2: GCGAGACTCCGCGCTGCGACGTCG
# What was measured:
# [1] = Colony survival, ola with or without RTX-161 (source data sheet Fig. 2 b; cell line not given); type: cell-based; settings: vehicle
# [2] = test system: VC8 cells; test: Clonogenic assay; type: cell-based, Chinese hamster; settings: VC8 cells, vehicle
# Protocol: (§1) Cells were plated on six or twelve or twenty-four well plates. In six well plate, 1000 cells/ well of BRCA2 -/-, BRCA1 -/-, PALB2 mut and 500 cells/ well of wildtype pair was plated; In twelve well plate, 600 cells/ well of BRCA2 -/-, BRCA1 -/-, PALB2 mut and 400 cells/ well of wildtype pair was plated; In twenty-four well plate, 500 cells/ well of BRCA2 -/-, BRCA1 -/-, PALB2 mut and 300 cells/ well of wildtype pair was plated. For MEFs, 300 cells per well in six-well plate were seeded. The medium was replaced every 2 days until the colonies were ready for staining in 10–12 days. For staining: Medium was removed from plates, and cells were rinsed with PBS. Fixation was carried out with—Water: Ethanol: Acetic acid (5:4:1) for 30 min followed by staining of colonies with 0.5% crystal violet in Water: Ethanol (3:2) for 2 h at room temperature. The plates were rinsed with water and left for drying overnight at room temperature. Colonies were then counted and IC50 was calculated using results from 3 or more independent experiments. Response curves are shown as mean colony formation +/- S.E.M.
# (§2) Data are expressed as mean ± SEM from at least 3 independent experiments with triplicates for each condition unless stated otherwise. When conducting comparison between two groups, two-tailed unpaired t-test was used. Significance was assumed at p < 0.05. Asterisks in the figures indicate significance, ^∗p < 0.05, ^∗∗p < 0.01, ^∗∗∗p < 0.001. Combenefit® software version 2.021 was used to perform synergy analyses for drug combinations between RTx-161 and PARPi. GraphPad Prism 9 software was used to calculate IC50.
# [3] = test system: CAPAN-1 cells; test: Clonogenic assay; type: cell-based; settings: Capan-1 cells, vehicle
# Protocol: as §1, §2
# [4] = Colony survival, ola with or without RTX-161 (source data sheet Fig. 2 c; cell line not given); type: cell-based; settings: ola 0.125 um, RTX-161 0 uM
# [5] = target: T1, Polθ-pol; test: Cy5 fluorescence Polθ-pol DNA synthesis (strand displacement) IC50 assay; type: biochemical; settings: Polθ-pol DNA synthesis, Cy5 fluorescence
# Protocol: The following Cy5 fluorescence assay was used to measure the ability of compounds to inhibit Polθ-pol in vitro. The fluorescent based assay was performed as follows: 60 nM of the pre-annealed primer-template containing a 5’ Cy5 fluorophore conjugated template strand (RP486-Cy5), a downstream complementary oligo conjugated with a 3’ Iowa BlackReg Dark quencher (RP343BHQRQ) and a primer strand (RP469D) was mixed with 50 uM 2'-deoxyribonucleoside triphosphates (dNTPs), 0.1 mg/mL Bovine serum albumin (BSA), 0.01% NP-40, 10% glycerol, 1 mM dithiothreitol (DTT), 10 mM MgCl2, 25 mM TrisHCl pH 7.8 in the presence of 2.5% DMSO with or without various concentrations (7-point dilution series) of Polθ-pol small-molecule inhibitors at 37 °C in a volume of 40 μL. The reactions were initiated by the addition of 5 nM of purified recombinant human Polθ-pol (comprising amino acid residues 1792–2590). The reactions were terminated by the addition of 20 mM EDTA after 18 min, and the Cy5 fluorescence intensity was measured using a CLARIOstar (BMG Labtech) plate reader. Reactions were performed in triplicate and the % inhibition at each concentration of the respective compound of Formula I was based on the mean.
# [6] = Metabolic stability in liver microsomes; type: in vitro ADME; settings: read-out: t1/2 liver microsomes
# [7] = Solubility (2% DMSO/PBS); type: physicochemical; settings: aqueous buffer, kinetic from dmso stock
# [8] = target: T2, Polθ-pol; test: EcoRI endonuclease protection with unlabeled DNA trap; RTx-161, ddCTP; cleavage suppressed >10 min; Endonuclease protection buffer not in the material; crystals: 0.24 M Na citrate, 18% PEG 3350, 0.1 M Bis Tris propane pH 7.5, with 1 mM MgCl2, 1 mM ddGTP, 20 mM spermine in the complex mix; settings: protein: recombinant; label: 32P (5'); 5' overhang 12 nt on template; 14 bp duplex
# [9] = target: Fl-Polθ (UniProt O75417 1-2590); test: EcoRI endonuclease protection with unlabeled DNA trap; RTx-152, ddCTP; i+1 complex fully resistant; Endonuclease protection buffer not in the material; crystals: 0.24 M Na citrate, 18% PEG 3350, 0.1 M Bis Tris propane pH 7.5, with 1 mM MgCl2, 1 mM ddGTP, 20 mM spermine in the complex mix; settings: protein: recombinant; label: 32P (5'); 5' overhang 12 nt on template; 14 bp duplex
# [10] = target: T3, PolθΔL (Polθ-pol, five loops replaced); test: X-ray crystallography, 3.24 Å; RTx-152, ddGTP, Mg2+; closed conformation; Endonuclease protection buffer not in the material; crystals: 0.24 M Na citrate, 18% PEG 3350, 0.1 M Bis Tris propane pH 7.5, with 1 mM MgCl2, 1 mM ddGTP, 20 mM spermine in the complex mix; settings: protein: recombinant; tags: 6xHis-SUMO removed with PreScission protease; 5' overhang 10 nt on template; 14 bp duplex
molecule,measurement,setting,value
O=C(c1cc(Cc2n[nH]c(=O)c3ccccc23)ccc1F)N1CCN(C(=O)C2CC2)CC1 [ola],percent suvival,[1]; ola 7.9 nano M,85.0909% and 53.0303% and 63.9535%
same,percent suvival,[1]; ola 11.8 nano M,61.0909%
same,percent suvival,[1]; ola 17.70 nano M,49.2424% and 44.186% and 51.6364%
same,percent suvival,[1]; ola 26.60 nano M,49.0909%
same,percent suvival,[1]; ola 40.00 nano M,44.7273% and 28.7879% and 31.9767%
same,percent suvival,[1]; ola 60.00 nano M,38.5455%
same,percent suvival,[1]; ola 90.00 nano M,15.1515% and 16.8605% and 24.3636%
same,percent suvival,[2]; ola 1.875 nano M,82.1918% and 93.3333% and 61.7978%
same,percent suvival,[2]; ola 30.00 nano M,0%
same,percent suvival,"[3]; ola 0.041 micro M, experiment block 1 (c0-c9)",35.7622%
same,percent suvival,"[3]; ola 0.041 micro M, experiment block 2 (c10-c19)",95.0051%
same,percent suvival,"[3]; ola 0.041 micro M, experiment block 3 (c20-c29)",99.322%
same,percent suvival,"[3]; ola 0.123 micro M, experiment block 1 (c0-c9)",20.5479%
same,percent suvival,"[3]; ola 0.123 micro M, experiment block 2 (c10-c19)",86.264%
same,percent suvival,"[3]; ola 0.123 micro M, experiment block 3 (c20-c29)",101.808%
same,percent suvival,"[3]; ola 0.37 micro M, experiment block 1 (c0-c9)",15.0785%
same,percent suvival,"[3]; ola 0.37 micro M, experiment block 2 (c10-c19)",58.3758%
same,percent suvival,"[3]; ola 0.37 micro M, experiment block 3 (c20-c29)",61.807%
same,percent suvival,"[3]; ola 1.11 micro M, experiment block 1 (c0-c9)",13.2577%
same,percent suvival,"[3]; ola 1.11 micro M, experiment block 2 (c10-c19)",54.2134%
same,percent suvival,"[3]; ola 1.11 micro M, experiment block 3 (c20-c29)",43.0496%
same,percent suvival,[4],53.6122% and 69.9422% and 40.4494%
CN(C(=O)Oc1c(Cl)cc(Cl)c2cccnc12)c1ccccc1 [MC280003],IC50,[5],160 nM
same,half-life,[6],1.5 min
same,solubility,[7],21 µM
B1,binding result,[8],binds
same,binding result,[9],binds
B2,binding result,[10],binds
